One test addresses T1, calpain-2 (Homo sapiens, UniProt P17655).
T1 sequence (P17655 1-700): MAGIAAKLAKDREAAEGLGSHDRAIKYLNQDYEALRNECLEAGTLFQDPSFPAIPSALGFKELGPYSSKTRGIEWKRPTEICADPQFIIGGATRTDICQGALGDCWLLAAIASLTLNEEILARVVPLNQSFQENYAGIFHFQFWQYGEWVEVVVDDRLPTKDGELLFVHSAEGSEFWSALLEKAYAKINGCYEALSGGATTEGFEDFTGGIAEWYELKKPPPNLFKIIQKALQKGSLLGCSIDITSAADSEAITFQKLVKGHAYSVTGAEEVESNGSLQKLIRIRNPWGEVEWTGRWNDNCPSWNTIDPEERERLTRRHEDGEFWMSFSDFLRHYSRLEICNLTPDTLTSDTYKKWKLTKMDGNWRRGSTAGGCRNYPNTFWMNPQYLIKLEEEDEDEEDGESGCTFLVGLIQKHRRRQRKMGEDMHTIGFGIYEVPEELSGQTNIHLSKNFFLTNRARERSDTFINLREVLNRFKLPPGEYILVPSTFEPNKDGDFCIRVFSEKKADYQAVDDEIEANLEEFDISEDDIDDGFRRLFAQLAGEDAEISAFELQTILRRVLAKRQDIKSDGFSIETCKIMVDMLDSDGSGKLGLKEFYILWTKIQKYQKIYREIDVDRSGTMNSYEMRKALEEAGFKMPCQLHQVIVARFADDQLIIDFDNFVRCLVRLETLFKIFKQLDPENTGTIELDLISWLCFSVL
T1 sequence (P04632 1-268 partner): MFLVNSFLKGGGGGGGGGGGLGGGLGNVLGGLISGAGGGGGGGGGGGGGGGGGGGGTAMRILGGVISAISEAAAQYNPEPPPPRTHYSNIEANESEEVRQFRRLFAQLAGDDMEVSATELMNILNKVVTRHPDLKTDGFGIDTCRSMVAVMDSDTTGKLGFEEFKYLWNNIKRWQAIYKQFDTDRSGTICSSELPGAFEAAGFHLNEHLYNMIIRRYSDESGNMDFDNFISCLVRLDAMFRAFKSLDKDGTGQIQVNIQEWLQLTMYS
Put plainly: in vitro calpain-2 inhibition, succinic-Leu-Tyr-AMC substrate. It counts as biochemical. On the procedure:
Formula 1, where chiral center 1 is the L-form and chiral center 2 is a racemic mixture of D- and L- in this example was introduced at various concentrations (from 1 nM to 10 μM) into an in vitro mix comprising succinic-Leu-Tyr-AMC and calpain-1 or calpain-2 (Sasaki et al, 1984), and the kinetics of the loss of fluorescence were determined for each of the calpains (Powers et al, 2000). […] Therefore, the assessment of selectivity described herein was different than the prior teaching.
Formula 1A, where chiral center 1 is the S-form and chiral center 2 is the S-form was separated from the S-R-form (Formula 1B) using methods that are well-known methods for separating diastereoisomers. Formula 1A, which is also referred to herein as compound 18A, in this example was introduced at various concentrations into an in vitro mix comprising succinic-Leu-Tyr-AMC and μ-calpain or m-calpain (Sasaki et al, 1984), and the kinetics of the loss of fluorescence were determined for each of the calpains.

Test [1] relates to cortical neuronal cultures (14 DIV). Put plainly: neuronal death mediated by extrasynaptic NMDA receptor activation. To be noted: dose-dependent from 200 nM to 5 μM. It counts as cell-based. On the procedure:
Results are expressed as percent of neurons positively stained with the Hoechst reagent and are means±S.E.M. of 3-4 experiments (*p<0.01, Student's t-test).
A selective calpain-2 inhibitor blocks neuronal death mediated by extrasynaptic NMDA receptor activation. Cortical neuronal cultures (14 DIV) were treated to induce selective activation of extrasynaptic NMDA receptors, which results in neuronal cell death.

One molecule from patent US20190030114A1, “ISOFORM-SPECIFIC CALPAIN INHIBITORS, METHODS OF IDENTIFICATION, AND USES THEREOF” (WESTERN UNIVERSITY OF HEALTH SCIENCES, priority 2014, published 2019) can be followed below.

The structures appear in SMILES notation. Read-outs that look alike come from different tables or passages of the source.

For the molecule `CCC(NC(=O)C(CC(C)C)NC(=O)OCc1ccccc1)C(=O)C(=O)NCc1cc(OC)cc(OC)c1` (racemic) [Formula 1, Z-Leu-Abu-CONH—CH2-C6H3 (3, 5-(OMe)2)], on calpain-2, the “Ratio KiCalpain-1/KiCalpain-2” value was determined as 31.1. Also, the Ki – broadly, a measure of affinity in units of concentration, obtained from inhibition or displacement – at calpain-2 (Example 1, chiral center 2 racemic, read-out: Ki for calpain-2, determined herein) was 25 nM; on calpain-2 (Example 13, n = 3-4, read-out: Ki Calpain-2), 21.3 nM. In addition, 210 nM corresponded to half-maximal inhibition against calpain-2 (n = 3-4) (IC50). In addition, the “neuronal cell death associated with extrasynaptic NMDA receptor activation” value is “reduced the neuronal cell death” in test [1] and “reduced neuronal cell death” in test [1] (listed as Formula I).
